This note sets out measurements from ChEMBL document CHEMBL1201862, “PubChem BioAssay data set” (2004).

Activity calls are given as the source filed them.

Experiment [1] concerns the target DNA damage-inducible transcript 3 protein (Mus musculus, UniProt P35639). Type of experiment: functional, Cricetulus griseus.
For another experiment, the target named is T1, X-box-binding protein 1 (Homo sapiens, UniProt P17861).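 Further: confirmatory dose-response counter-screen serving a CHOP assay.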
T1 sequence (P17861 whole entry): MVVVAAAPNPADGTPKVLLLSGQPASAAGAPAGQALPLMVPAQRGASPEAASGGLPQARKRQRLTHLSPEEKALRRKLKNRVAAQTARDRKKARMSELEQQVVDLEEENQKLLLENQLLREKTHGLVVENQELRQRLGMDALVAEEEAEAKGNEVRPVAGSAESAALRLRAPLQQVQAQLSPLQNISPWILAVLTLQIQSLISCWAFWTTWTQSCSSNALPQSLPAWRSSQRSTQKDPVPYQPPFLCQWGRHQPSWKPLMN
Type of experiment: functional, Cricetulus griseus.

The nature of experiment [2]: HEp-2 cell cytotoxicity, dose response, cytotoxicity control for RSV inhibitor project, HTS (AID 2410). The note with it: human respiratory syncytial virus. The experiment is classed as functional.
A short description of experiment [3]: THP-1 cell cytotoxicity, dose response, cytotoxicity control for non-replicating M. tuberculosis project (AID 489025). The experiment is classed as functional.
The nature of experiment [4]: HepG2 cell cytotoxicity, dose response, cytotoxicity control for non-replicating M. tuberculosis project (AID 489018). Type of experiment: functional. The note with it: Mycobacterium tuberculosis.
Another experiment is described as follows: cells. The experiment is classed as functional.
The next experiment has as its target T2, Estrogen receptor (Homo sapiens, UniProt P03372).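 Further: potency for inhibiting coactivator peptide recruitment to the receptor.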
T2 sequence (P03372 whole entry): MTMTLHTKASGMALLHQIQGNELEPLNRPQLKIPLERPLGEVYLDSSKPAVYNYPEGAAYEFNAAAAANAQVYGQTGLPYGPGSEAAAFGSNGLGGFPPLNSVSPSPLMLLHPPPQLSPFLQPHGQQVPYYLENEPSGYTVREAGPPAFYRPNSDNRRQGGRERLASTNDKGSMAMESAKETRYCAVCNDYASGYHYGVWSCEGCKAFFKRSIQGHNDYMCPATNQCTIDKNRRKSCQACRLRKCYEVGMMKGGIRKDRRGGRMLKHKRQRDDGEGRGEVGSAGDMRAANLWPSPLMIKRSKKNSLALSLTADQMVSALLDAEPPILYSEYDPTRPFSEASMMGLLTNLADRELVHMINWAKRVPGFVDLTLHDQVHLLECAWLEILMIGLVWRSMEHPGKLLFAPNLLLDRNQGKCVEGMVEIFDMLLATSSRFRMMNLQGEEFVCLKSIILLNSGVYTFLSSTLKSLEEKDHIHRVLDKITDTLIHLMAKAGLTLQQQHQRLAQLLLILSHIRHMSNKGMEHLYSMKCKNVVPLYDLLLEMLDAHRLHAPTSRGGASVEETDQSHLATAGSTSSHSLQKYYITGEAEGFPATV

A further experiment relates to HEK293. Kind of experiment: inhibitors of LMP1-driven NF-kB reporter, dose response, cell-based, HEK293, luciferase, cherry-pick (AID 588343). The experiment is classed as functional. The note with it: Homo sapiens.
The next experiment deals with HeLa. Kind of experiment: HeLa cell cytotoxicity, dose response, cytotoxicity control, 24 h, cherry-picked samples (AID 504726).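 Further: potency for cytotoxicity as loss of luminescence signal.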 Type of experiment: functional, cell-based. Conditions: Homo sapiens.
Experiment [5] addresses Glyceraldehyde-3-phosphate dehydrogenase (Homo sapiens, UniProt P04406).
Experiment [6] deals with T3, Alkaline phosphatase, tissue-nonspecific isozyme (Homo sapiens, UniProt P05186).
T3 sequence (P05186 whole entry): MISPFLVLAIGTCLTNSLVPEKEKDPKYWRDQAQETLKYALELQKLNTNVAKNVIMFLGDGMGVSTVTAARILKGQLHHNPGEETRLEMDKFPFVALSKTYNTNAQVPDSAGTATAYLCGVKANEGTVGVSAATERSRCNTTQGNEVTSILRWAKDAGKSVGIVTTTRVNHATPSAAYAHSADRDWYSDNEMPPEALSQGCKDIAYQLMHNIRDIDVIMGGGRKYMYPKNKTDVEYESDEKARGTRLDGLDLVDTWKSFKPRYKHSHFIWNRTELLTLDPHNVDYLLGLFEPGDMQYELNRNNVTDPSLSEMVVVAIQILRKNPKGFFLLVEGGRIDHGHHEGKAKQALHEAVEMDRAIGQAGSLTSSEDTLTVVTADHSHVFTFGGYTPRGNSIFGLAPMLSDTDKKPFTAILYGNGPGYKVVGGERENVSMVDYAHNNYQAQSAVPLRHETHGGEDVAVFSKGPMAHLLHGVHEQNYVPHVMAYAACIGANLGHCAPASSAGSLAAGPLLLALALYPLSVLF
The experiment in a line: human TNAP enzyme inhibitors, SAR follow-up, biochemical, luminescent, dose response (AID 1056).

A further experiment has as its target T4, Leucine aminopeptidase (Plasmodium falciparum 3D7, UniProt Q8IL11).
T4 sequence (Q8IL11 whole entry): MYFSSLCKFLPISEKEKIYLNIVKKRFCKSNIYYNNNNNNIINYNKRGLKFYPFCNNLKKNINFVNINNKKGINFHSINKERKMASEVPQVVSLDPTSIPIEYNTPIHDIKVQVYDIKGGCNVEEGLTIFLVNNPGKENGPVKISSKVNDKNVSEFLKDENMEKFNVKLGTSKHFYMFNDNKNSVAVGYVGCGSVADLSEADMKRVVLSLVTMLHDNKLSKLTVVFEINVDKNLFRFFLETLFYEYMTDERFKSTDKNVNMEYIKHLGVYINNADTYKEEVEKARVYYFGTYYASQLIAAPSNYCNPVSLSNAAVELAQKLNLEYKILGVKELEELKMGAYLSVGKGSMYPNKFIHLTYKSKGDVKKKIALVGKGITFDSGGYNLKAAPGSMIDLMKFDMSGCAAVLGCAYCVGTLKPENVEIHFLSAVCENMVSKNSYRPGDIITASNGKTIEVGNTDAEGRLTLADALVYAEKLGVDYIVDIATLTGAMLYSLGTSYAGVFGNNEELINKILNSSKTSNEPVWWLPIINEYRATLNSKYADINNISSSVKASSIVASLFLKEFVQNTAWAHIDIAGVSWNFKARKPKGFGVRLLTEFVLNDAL
Kind of experiment: P. falciparum M17LAP inhibitors, primary screen, biochemical, fluorogenic H-Leu-NHMec substrate, 1536-well (AID 1619). The experiment is classed as functional.

The next experiment addresses T5, Cytochrome P450 1A2 (Homo sapiens, UniProt P05177).
T5 sequence (P05177 whole entry): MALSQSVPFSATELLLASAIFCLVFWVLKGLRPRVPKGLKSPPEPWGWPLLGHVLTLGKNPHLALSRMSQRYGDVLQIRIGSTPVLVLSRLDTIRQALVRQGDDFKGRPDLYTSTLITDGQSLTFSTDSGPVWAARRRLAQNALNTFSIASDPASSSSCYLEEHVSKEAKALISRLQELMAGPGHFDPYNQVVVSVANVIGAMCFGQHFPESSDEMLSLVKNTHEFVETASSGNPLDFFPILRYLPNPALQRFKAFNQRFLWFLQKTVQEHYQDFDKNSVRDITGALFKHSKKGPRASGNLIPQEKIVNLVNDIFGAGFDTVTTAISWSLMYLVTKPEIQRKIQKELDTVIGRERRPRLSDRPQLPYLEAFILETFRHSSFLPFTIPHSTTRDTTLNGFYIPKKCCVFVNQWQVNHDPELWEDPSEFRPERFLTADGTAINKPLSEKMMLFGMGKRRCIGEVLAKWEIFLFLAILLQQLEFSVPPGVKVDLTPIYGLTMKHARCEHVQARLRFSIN

Another experiment has as its target Cytochrome P450 3A4 (Homo sapiens, UniProt P08684).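 Further: CYP3A4 tested as one member of a cytochrome P450 panel screen.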
A further experiment concerns the target Cytochrome P450 2C9 (Homo sapiens, UniProt P11712).
Experiment [7] concerns the target Eukaryotic translation initiation factor 4E (Mus musculus, UniProt P63073). The experiment in a line: eIF4E–eIF4G protein interaction inhibitors, dose response, biochemical, TR-FRET (AID 855).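 Further: potency for disrupting eIF4E binding to eIF4GI seen as loss of FRET.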 The experiment is classed as functional. On the technique in general: TR-FRET usually uses a lanthanide donor and a delayed reading to cut background.
For experiment [8], the target named is T6, Heat shock factor protein 1 (Mus musculus, UniProt P38532).
T6 sequence (P38532 whole entry): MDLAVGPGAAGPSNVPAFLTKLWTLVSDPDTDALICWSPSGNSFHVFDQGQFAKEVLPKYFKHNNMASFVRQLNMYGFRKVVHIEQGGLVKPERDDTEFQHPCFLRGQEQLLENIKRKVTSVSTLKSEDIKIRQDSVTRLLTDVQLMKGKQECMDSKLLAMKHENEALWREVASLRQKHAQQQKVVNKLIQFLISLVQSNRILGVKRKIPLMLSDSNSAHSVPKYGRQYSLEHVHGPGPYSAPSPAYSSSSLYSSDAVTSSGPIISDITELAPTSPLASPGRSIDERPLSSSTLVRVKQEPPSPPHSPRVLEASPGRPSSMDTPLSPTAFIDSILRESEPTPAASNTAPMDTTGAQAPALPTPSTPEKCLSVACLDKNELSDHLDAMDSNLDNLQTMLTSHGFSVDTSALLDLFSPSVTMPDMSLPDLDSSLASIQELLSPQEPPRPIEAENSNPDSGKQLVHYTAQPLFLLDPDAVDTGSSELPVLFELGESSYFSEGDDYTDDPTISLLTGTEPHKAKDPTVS
The experiment in a line: inhibition of MG132-induced HSE-luciferase signal, confirmation, cell-based, NIH3T3, luminescence, dose retest (AID 2382).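 Further: NIH3T3 fibroblasts with HSF1-driven luciferase reporter stressed by proteasome inhibitor MG132; luminescence from HSF1-driven luciferase expression after 8 hours of MG132 stress.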 The experiment is classed as functional.

The target in experiment [9] is Induced myeloid leukemia cell differentiation protein Mcl-1 (Homo sapiens, UniProt Q07820). Type of experiment: functional.
Sequence of Induced myeloid leukemia cell differentiation protein Mcl-1 (Q07820 whole entry): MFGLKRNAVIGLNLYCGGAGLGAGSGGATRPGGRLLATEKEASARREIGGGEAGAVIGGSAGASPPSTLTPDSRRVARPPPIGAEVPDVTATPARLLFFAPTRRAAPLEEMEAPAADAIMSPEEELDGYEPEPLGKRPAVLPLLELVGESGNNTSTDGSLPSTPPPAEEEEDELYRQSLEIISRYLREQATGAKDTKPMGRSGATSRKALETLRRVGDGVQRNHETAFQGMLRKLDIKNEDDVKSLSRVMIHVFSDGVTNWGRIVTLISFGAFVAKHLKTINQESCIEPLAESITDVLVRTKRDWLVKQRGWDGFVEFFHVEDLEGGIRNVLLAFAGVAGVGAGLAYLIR
A short description of experiment [10]: Vero E6 cell cytotoxicity, dose response, cytotoxicity control for non-replicating M. tuberculosis project, secondary assay (AID 492998). The experiment is classed as functional, VeroE6. Conditions: Vero C1008.

Sequence of Eukaryotic translation initiation factor 4E (P63073 whole entry): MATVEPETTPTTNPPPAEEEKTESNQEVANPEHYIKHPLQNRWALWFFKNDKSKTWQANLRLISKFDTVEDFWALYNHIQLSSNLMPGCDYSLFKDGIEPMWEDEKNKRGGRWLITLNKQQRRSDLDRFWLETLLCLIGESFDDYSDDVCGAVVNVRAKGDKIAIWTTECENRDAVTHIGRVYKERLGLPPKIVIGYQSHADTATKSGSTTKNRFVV
Sequence of DNA damage-inducible transcript 3 protein (P35639 whole entry): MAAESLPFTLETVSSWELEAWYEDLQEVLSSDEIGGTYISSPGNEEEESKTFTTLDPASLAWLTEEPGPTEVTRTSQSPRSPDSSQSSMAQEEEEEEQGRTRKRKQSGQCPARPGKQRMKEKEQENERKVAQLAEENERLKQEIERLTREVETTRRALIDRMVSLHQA
Sequence of Cytochrome P450 2C9 (P11712 whole entry): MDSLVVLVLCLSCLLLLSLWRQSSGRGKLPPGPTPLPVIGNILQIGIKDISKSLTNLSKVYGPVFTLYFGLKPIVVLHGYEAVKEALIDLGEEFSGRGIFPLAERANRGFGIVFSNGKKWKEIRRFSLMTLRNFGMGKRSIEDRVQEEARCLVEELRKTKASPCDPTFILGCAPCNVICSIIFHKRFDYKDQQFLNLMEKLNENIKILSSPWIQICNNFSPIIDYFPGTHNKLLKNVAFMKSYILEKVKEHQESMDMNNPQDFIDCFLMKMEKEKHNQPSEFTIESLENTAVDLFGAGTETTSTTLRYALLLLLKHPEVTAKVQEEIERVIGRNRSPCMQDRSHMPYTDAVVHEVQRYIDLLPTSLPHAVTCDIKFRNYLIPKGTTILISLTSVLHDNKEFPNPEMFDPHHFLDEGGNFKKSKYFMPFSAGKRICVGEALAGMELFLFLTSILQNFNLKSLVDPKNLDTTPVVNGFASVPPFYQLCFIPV
Sequence of Glyceraldehyde-3-phosphate dehydrogenase (P04406 whole entry): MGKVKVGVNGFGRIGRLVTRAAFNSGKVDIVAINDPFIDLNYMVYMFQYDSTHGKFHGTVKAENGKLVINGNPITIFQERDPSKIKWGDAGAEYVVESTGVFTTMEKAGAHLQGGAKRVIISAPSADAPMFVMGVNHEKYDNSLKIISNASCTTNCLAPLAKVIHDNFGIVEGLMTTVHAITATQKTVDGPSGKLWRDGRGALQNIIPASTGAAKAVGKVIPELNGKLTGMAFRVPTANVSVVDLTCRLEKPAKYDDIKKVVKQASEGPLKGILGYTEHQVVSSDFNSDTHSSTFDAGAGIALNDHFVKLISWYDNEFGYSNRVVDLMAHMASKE
Sequence of Cytochrome P450 3A4 (P08684 whole entry): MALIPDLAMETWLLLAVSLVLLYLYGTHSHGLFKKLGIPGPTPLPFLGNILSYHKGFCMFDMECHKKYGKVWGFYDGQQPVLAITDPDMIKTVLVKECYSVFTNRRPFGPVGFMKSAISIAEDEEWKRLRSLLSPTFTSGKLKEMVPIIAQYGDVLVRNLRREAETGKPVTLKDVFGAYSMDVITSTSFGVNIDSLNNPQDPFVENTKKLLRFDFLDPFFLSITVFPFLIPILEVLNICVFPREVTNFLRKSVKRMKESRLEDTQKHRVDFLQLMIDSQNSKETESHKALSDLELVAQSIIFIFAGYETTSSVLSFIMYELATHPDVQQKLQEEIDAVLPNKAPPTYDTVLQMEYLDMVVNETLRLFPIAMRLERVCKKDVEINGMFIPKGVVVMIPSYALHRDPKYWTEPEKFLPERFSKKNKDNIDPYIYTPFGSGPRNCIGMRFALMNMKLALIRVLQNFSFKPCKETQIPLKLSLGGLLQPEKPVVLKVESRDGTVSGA

In the case of `Cc1ccc(NCC(=O)N/N=C/c2cccc(Oc3ccccc3)c2)cc1`, the “Absolute IC50 (CHOP)” value in experiment [1] came to 10 µM. Besides, the “Absolute IC50 (XBP1)” value at X-box-binding protein 1 is less than 10 µM.
For orientation: CC50 means the concentration that lowers cell viability or growth by half. The term IC50 denotes the concentration at which inhibition is half-maximal. As to `CC(C)CCNCC(O)CON=C1c2ccccc2-c2ccccc21` (stereo not drawn), the CC50 was 12.6 µM (active) in [2], 13.8 µM (active) in experiment [3] and 14.4 µM (active) in experiment [4]. Besides, the IC50 in the experiment “cells” was 16.8 µM (active).
The term AC50 denotes the midpoint of the concentration-response curve, whichever way the signal moves. `O=C(Nc1ccc2c(c1)nc1n2CCSC1)c1ccco1`: the IC50 at Estrogen receptor was 14.5 µM (active). For the same compound, the AC50 in the experiment with HEK293 was 3.52 µM (active).
Regarding `Cc1c(N)cc(S(=O)(=O)O)cc1NC(=O)c1cccc([N+](=O)[O-])c1`, in the experiment with HeLa, the AC50 is 56.4 µM (active).
`COc1cccc(Cc2nnc(N3C(=O)c4ccccc4C3=O)[nH]2)c1`: the IC50 in [5] is > 100 µM (not active); in experiment [6] it was 1.19 µM (active).
Regarding `COc1cccc(OCCNc2ccc([N+](=O)[O-])cn2)c1`, the AC50 with HeLa is 49.3 µM (active).
With `O=C(O)c1ccccc1-c1ccccc1C(=O)Nc1ccc2c(c1)[nH]c(=O)c1ccccc12`, the IC50 at Leucine aminopeptidase was 38.8 µM (active). In addition, the AC50 at Cytochrome P450 1A2 was 0.00316 µM (inconclusive); on Cytochrome P450 3A4, 3.98 µM (inconclusive); at Cytochrome P450 2C9, 3.16 µM (inconclusive).
On to `CCOc1cc(C2c3c(C)n[nH]c3C(=O)N2c2ccc(C)cc2)ccc1O` (stereo not drawn), for which the IC50 in experiment [7] is > 64 µM (inactive).
A word on the EC50: it is the midpoint of the concentration-response curve. Low values mean greater potency, high ones weaker potency. On to `O=C(COC(=O)Cc1c(Cl)cccc1Cl)Nc1ccc(OC(F)(F)F)cc1`, for which the EC50 in experiment [8] is reported as > 195 µM (not active). Also, on X-box-binding protein 1, the “Absolute IC50 (XBP1)” value was 10 µM.
On to `CCCn1nc(C(=O)OCC(=O)c2ccc3c(c2)NC(=O)CO3)c2ccccc2c1=O`, for which the IC50 at Estrogen receptor was 37.9 µM (not active).
Regarding `Cc1ccc(OCC(=O)O/N=C(\N)Cc2ccc([N+](=O)[O-])cc2)cc1C`, in the experiment on HeLa, the AC50 is > 350 µM (inactive).
With `CC1CCN(C(=S)c2ccccc2O)CC1`, the IC50 in experiment [7] was > 64 µM (inactive).
`Cc1cc(NC(=O)CSc2nc3cc4c(cc3c(=O)n2CCc2ccccc2)OCO4)no1`: in experiment [1], the “Absolute IC50 (CHOP)” value was found to be 10 µM. The “Absolute IC50 (XBP1)” value at X-box-binding protein 1 came to 10 µM.
In the case of `Cc1cc(S(=O)(=O)NC2CCN(Cc3ccccc3)CC2)c(C)cc1Cl`, the AC50 with HeLa is 52.3 µM (active).
In the case of `Cc1ccc(/C=c2\sc3nc(-c4ccco4)nn3c2=O)o1`, the IC50 is 13.9 µM (active) on Estrogen receptor and 4.61 µM (active) in experiment [9].
With `O=C(Nc1nnc(C2CC2)o1)c1ccc(S(=O)(=O)N2CCCCC2)cc1`, the CC50 in [3] is > 40 µM (active); in experiment [4], > 20 µM (active); in experiment [10] it was 11.5 µM (active). The IC50 in the experiment “cells” was 10.3 µM (active).
Take `CC(C)=CCc1c(O)c(CC=C(C)C)c2c(c1O)C(=O)CC(c1ccc(O)cc1)O2` (stereo not drawn): the “Absolute IC50 (XBP1)” value at X-box-binding protein 1 turned out to be 10 µM.
Regarding `Cc1ccc(OCc2ccc(C(=O)O)o2)c([N+](=O)[O-])c1`, at Leucine aminopeptidase, the IC50 was 31.8 µM (active).
